Measurements reported in patent US20070142437A1, “CHEMICAL COMPOUNDS” (priority 2005, published 2007).

Columns and labels:
Type in all cases: biochemical
CDK4 = target: T1, CDK4 (Homo sapiens, UniProt P11802); assay: CDK4 substrate phosphorylation assay (Rb protein, 33P-ATP); details: Inhibition of CDK4
T1 construct: made in house
Protocol: (§1) The compounds of the present invention have valuable pharmacologic properties. Different compounds from this class are particularly effective at inhibiting CDK2 and/or CDK4 enzymes at concentrations, which range from 0.0001 to 1 μM and additionally show specificity relative to other kinases. Substrate phosphorylation assays were carried out as follows:
Cyclin D1 and cyclin-dependent kinase 4 were expressed utilizing a baculovirus expression system. The catalytic activity of CDK4 protein was assayed by measuring the phosphorylation of Rb protein. A truncated Rb protein (residues 773-928 of the native retinoblastoma protein, fused to glutathione S-transferase to facilitate purification) was used as the phosphoryl acceptor. The assay conditions were 100 mM HEPES (N-[2-hydroxyethyl]piperzine-N′-[2-ethanesulfonic acid]), pH 7.5, 0.5 μM GST-Rb protein, 1 μCi/mL [^33P]-ATP (1 nM-20 μM), 5-20 mM MgCl2, 2.5 mM EDTA, 1 mM dithiotheitol, 0.2 mg/mL bovine serum albumin, 2% (v/v) dimethyl sulfoxide (DMSO), CDK4 enzyme (5-50 nM) in a final volume of 50 μL. Reactions were incubated for time periods of 10-60 min at 30° C. and terminated by the addition of 50 μL quench (1 mM ATP/100 mM EDTA, pH 7.0). Detection of protein phosphorylation was accomplished by scintillation counting following collection of protein in 96 well plates coated with Glutathione or trapping of protein onto phosphocellulose filters. Counts detected by these methodologies minus the appropriate background were assumed to be proportional to the reaction initial rates. IC50 values were determined by measuring enzyme activity in the presence of different inhibitor concentrations (0.1 nM to 50 μM). IC50s were determined by a least squares fit to the equation CPM=Vmax*(1−([I]/(K+[I])))+nsb, or pIC50s were determined by a fit to the equation CPM=nsb+(Vmax−nsb)/(1+(x/10^x−pIC50)), where nsb are the background counts.

hVEGFR2 = hVEGFR2 (Homo sapiens, UniProt P35968); assay: VEGFR2 HTRF assay; details: Inhibition of VEGFR2
Sequence of hVEGFR2 (P35968 20-1356): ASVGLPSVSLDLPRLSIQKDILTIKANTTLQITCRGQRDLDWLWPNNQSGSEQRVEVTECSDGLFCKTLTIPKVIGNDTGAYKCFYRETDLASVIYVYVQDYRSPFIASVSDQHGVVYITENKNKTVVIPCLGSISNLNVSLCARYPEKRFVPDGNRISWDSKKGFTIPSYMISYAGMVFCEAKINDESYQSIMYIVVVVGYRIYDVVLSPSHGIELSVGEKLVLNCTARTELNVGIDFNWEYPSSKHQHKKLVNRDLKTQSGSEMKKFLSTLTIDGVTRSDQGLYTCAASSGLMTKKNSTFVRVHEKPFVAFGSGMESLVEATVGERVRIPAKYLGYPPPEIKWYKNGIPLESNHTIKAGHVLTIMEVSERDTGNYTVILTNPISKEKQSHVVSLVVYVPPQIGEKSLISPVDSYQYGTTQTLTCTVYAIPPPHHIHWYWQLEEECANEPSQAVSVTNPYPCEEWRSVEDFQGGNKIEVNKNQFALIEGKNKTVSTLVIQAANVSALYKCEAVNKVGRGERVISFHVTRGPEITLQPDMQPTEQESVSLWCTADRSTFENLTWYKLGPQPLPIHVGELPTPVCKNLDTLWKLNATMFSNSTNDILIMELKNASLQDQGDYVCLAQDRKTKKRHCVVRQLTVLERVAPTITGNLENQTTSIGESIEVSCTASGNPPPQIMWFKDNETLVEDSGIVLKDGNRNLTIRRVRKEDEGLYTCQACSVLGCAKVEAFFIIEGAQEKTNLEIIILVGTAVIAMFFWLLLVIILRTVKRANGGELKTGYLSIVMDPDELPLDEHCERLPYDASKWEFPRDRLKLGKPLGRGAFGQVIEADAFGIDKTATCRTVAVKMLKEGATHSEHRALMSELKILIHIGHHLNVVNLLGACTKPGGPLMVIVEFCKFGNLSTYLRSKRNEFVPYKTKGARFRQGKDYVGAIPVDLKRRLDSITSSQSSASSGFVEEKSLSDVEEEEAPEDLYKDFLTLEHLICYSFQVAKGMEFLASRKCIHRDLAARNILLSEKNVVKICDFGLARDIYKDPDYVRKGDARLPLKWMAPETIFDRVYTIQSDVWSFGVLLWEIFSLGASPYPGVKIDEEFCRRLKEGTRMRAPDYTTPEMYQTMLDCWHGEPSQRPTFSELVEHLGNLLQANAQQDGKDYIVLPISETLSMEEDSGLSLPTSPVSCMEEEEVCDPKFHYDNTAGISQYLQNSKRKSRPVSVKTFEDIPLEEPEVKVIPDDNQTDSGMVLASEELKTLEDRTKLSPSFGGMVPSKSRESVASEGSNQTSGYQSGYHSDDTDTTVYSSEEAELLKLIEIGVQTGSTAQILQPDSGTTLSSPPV
Protocol: The compounds of the present invention elicit important and measurable pharmacological responses. Different compounds from this class are particularly effective at inhibiting VEGFR2 enzymes, as described by the VEGFR2 HTRF assay below, at concentrations, which range from 0.0001 to 1 μM.
The assays were performed in 96-well black plates. 10 nM hVEGFR2 was used to phosphorylate 0.36 μM peptide (Biotin-Ahx-EEEEYFELVAKKKK) in the presence of 75 μM ATP, 5 mM MgCl2, 0.3 mM DTT, 0.1 mg/ml BSA, and 0.1 M HEPES (pH 7.5). 10 μl 0.5 M EDTA was added to reactions as negative controls. The 50 μl kinase reaction with or without inhibitors in 5% DMSO was carried out at room temperature for 45 minutes, then stopped by 40 μl of 125 mM EDTA. 2.4 μg/ml Streptavidin-APC and 0.15 μg/ml Eu-α-pY, in the presence of 0.1 mg/ml BSA, 0.1 M HEPES (pH7.5), were added to a final volume of 140 μl. The plate was incubated for 10 min at room temperature (22° C.) and read on the Victor with the time resolved fluorescence mode by exciting at 340 nm and reading the emission at 665 nm.
• Peptide from Synpep (Dublin, Calif.) • ATP, MgCl2, DTT, BSA, HEPES, EDTA, DMSO from Sigma Streptavidin-APC from Molecular Probes (Eugene, Oreg.) • Eu-α-pY from EG&G Wallac (Gaithersburg, Md.)

CDK2 = target: T2, CDK2 (Homo sapiens, UniProt P24941); assay: CDK2 substrate phosphorylation assay (biotinylated peptide, 32P-ATP); details: Inhibition of CDK2
T2 construct: made in house
Protocol: as §1
Cyclin dependent protein kinase 2 assays utilized the peptide Biotin-aminohexyl-ARRPMSPKKKA-NH2 as phosphoryl group acceptor. CDK2 was expressed utilizing a baculovirus expression system and was partially purified to comprise 20-80% of total protein, with no detectable competing reactions present. Typically, assays were performed by incubating enzyme (0.2-10 nM), with and without inhibitor, peptide substrate (1-10 nM), [g-^32P]ATP (1-20 nM), and 10-20 mM Mg^2+ for periods of time generally within the range 10-120 minutes. Reactions were terminated with 0.2-2 volumes of either 20% acetic acid or 50-100 mM EDTA buffered to pH 7 (substrate consumption <20%). The buffer employed in enzyme assay was 100 mM HEPES pH 7.5 containing 0.1 mg/mL BSA and 5% DMSO. Inhibitors were diluted in 100% DMSO prior to addition into the assay. Detection of peptide phosphorylation was accomplished by scintillation counting following either collection of peptide onto phosphocellulose filters (for reactions stopped with acetic acid), collection of peptide in wells of 96 well plates coated with Streptavidin (Pierce) (reactions were stopped with EDTA), or addition of Avidin coated Scintillant impregnated beads (Scintillation Proximity Assays from Amersham, reactions were stopped with EDTA). Counts detected by any of these methodologies minus the appropriate background (assays with additional 40 mM EDTA or lacking peptide substrate) were assumed to be proportional to the reaction initial rates, and IC50s were determined by a least squares fit to the equation CPM=Vmax*(1−([I]/(K+[I])))+nsb, or −pIC50s were determined by a fit to the equation CPM=nsb+(Vmax−nsb)/(1+(x/10^x−pIC50)), where nsb are the background counts. Filters are washed four times with 75 mM phosphoric acid. Radioactivity was determined by liquid scintillation counting.

T1 sequence (P11802 whole entry, species assumed): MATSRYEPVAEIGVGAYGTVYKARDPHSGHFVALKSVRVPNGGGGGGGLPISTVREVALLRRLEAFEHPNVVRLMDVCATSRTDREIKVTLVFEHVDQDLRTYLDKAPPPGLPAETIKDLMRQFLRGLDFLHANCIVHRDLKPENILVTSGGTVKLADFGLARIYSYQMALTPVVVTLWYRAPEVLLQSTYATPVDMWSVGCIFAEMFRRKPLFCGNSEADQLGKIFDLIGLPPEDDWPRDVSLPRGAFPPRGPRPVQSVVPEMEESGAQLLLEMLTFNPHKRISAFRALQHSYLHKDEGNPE
T1 sequence (P24385 whole entry partner, species assumed): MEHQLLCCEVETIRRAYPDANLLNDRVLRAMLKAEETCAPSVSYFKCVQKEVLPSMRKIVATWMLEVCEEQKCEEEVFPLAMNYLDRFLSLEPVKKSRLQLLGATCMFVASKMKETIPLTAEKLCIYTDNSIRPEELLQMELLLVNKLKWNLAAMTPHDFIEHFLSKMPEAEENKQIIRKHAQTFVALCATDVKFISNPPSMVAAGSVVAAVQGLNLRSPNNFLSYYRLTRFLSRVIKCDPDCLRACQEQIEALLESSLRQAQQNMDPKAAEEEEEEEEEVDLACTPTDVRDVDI

Row | IC50 (CDK4) | IC50 (hVEGFR2) | IC50 (CDK2) | SMILES
1 | < 1 µM | < 1 µM | < 1 µM | CCN(CC)CCNC(=O)c1ccc(Nc2ncc(-c3cccc(OC)c3)o2)cc1 [Example 46, N-[2-(diethylamino)ethyl]-4-{[5-(3-methoxyphenyl)-1,3-oxazol-2-yl]amino}benzamide]
2 | < 1 µM | < 1 µM | < 1 µM | COc1cccc(-c2cnc(Nc3ccc(C(=O)N4CCN(C)CC4)cc3)o2)c1 [Example 47, 5-(3-methoxyphenyl)-N-{4-[(4-methylpiperazin-1-yl)carbonyl]phenyl}-1,3-oxazol-2-amine]
3 | < 0.1 µM | < 1 µM | < 1 µM | CCN(CC)CCNC(=O)c1ccc(Nc2ncc(-c3cccc(OC4CCCC4)c3)o2)cc1 [Example 48, 4-({5-[3-(cyclopentyloxy)phenyl]-1,3-oxazol-2-yl}amino)-N-[2-(diethylamino)ethyl]benzamide]
